The first assay concerns HBsAg. The assay is described as follows: HBsAg assay (chemiluminescence immunoassay of secreted HBsAg). Type of assay: cell-based, HBV. The note with it: HBsAg secretion, HepG2.2.15 cells, CLIA of culture supernatant. The protocol:
HepG2.2.15 cells (Acs et al. Proc Natl Acad Sci USA, 84, (1987), 4641-4), a constitutively HBV-expressing cell line were cultured in DMEM+Glutamax-I medium (Invitrogen, Carlsbad, Calif., USA), supplemented with 10% fetal bovine serum (Invitrogen) and G418 (Invitrogen) at a final concentration of 200 mg/L and maintained in 5% CO2 at 37° C.
HepG2.2.15 cells were seeded in duplicate into white, 96-well plates at 1.5×10^4 cells/well. The cells were treated with a three-fold serial dilution series of the compounds in DMSO. The final DMSO concentration in all wells was 1% and DMSO was used as no drug control.
The HBsAg chemiluminescence immunoassay (CLIA) kit (Autobio Diagnostics Co., Zhengzhou, China, Catalog number: CL0310-2) was used to measure the levels of secreted HBV antigens semi-quantitatively. For the detection 50 μL/well culture supernatant was used and HBsAg was quantified using HBsAg chemiluminescence immunoassay (CLIA) kit (Autobio Diagnostics Co., Zhengzhou, China, Catalog number: CL0310-2), 50 μL of the supernatant was transferred to the CLIA assay plate and 50 μL of enzyme conjugate reagent was added into each well. The plates were sealed and gently agitated for 1 hour at room temperature. The supernatant-enzyme-mixture was discarded and wells were washed 6 times with 300 μL of PBS.
The residual liquid was removed by plating the CLIA plate right side down on absorbent tissue paper. 25 μL of substrates A and B were added to each well. Luminance was measured using a luminometer (Mithras LB 940 Multimode Microplate Reader) after 10 minutes incubation. Dose-response curves were generated and the IC50 value was extrapolated by using the E-WorkBook Suite (ID Business Solutions Ltd., Guildford, UK). The IC50 was defined as the compound concentration (or conditioned media log dilution) at which HBsAg secretion was reduced by 50% compared to the no drug control.
The compounds according to formula I were tested for their capacity to inhibit HBsAg as described herein.
The term IC50 denotes the point on the concentration scale where inhibition reaches its midpoint. A lower IC50 goes with greater potency in that assay. In the case of `CC1c2cnc(-c3ncccn3)nc2CCN1c1cc(N2CCN(S(C)(=O)=O)CC2)cc(F)n1` (single isomer, unassigned) [Example 98, (+)-6-[6-Fluoro-4-(4-methylsulfonylpiperazin-1-yl)-2-pyridyl]-5-methyl-2-pyrimidin-2-yl-7,8-dihydro-5H-pyrido[4,3-d]pyrimidine], the IC50 amounted to 410 nM.

The same assay, now with this note: Hepatitis B virus, HepG2.2.15, HBsAg secretion, HepG2.2.15 cells, CLIA of culture supernatant.
Compound `CC1c2cnc(-c3ncccn3)nc2CCN1c1cc(NCCCCCC(=O)O)cc(F)n1` (stereo not drawn) [Example 1, 6-[[2-fluoro-6-(5-methyl-2-pyrimidin-2-yl-7,8-dihydro-5H-pyrido[4,3-d]pyrimidin-6-yl)-4-pyridyl]amino]hexanoic acid] yielded an IC50 of 1500 nM.

In turn, `CC1c2cnc(-c3ncccn3)nc2CCN1c1cc(F)cc(NCCCCCC(=O)O)n1` (stereo not drawn) [Example 2, 6-[[4-fluoro-6-(5-methyl-2-pyrimidin-2-yl-7,8-dihydro-5H-pyrido[4,3-d]pyrimidin-6-yl)-2-pyridyl]amino]hexanoic acid] yielded a half-maximal inhibitory concentration (IC50) of 155 nM. The same measure, in the same setting: in the case of `CC1c2cnc(-c3ncccn3)nc2CCN1c1cc(NC(=O)CO)cc(F)n1` (stereo not drawn) [Example 3, N-[2-Fluoro-6-(5-methyl-2-pyrimidin-2-yl-7,8-dihydro-5H-pyrido[4,3-d]pyrimidin-6-yl)-4-pyridyl]-2-hydroxy-acetamide] it was 60 nM.

`CC1CN(c2cc(F)nc(N3CCc4nc(-c5ncccn5)ncc4C3C)c2)CCO1` (stereo not drawn) [Example 4, 4-[2-fluoro-6-(5-methyl-2-pyrimidin-2-yl-7,8-dihydro-5H-pyrido[4,3-d]pyrimidin-6-yl)-4-pyridyl]-2-methyl-morpholine] returned an IC50 of 8 nM. Same read-out and setting: under `CC1CN(c2cc(F)cc(N3CCc4nc(-c5ncccn5)ncc4C3C)n2)CCO1` (stereo not drawn) [Example 5, 4-[4-fluoro-6-(5-methyl-2-pyrimidin-2-yl-7,8-dihydro-5H-pyrido[4,3-d]pyrimidin-6-yl)-2-pyridyl]-2-methyl-morpholine] stands 20 nM. Regarding `CCC1CN(c2cc(F)nc(N3CCc4nc(-c5ncccn5)ncc4C3C)c2)CCO1` (stereo not drawn) [Example 6, 2-ethyl-4-[2-fluoro-6-(5-methyl-2-pyrimidin-2-yl-7,8-dihydro-5H-pyrido[4,3-d]pyrimidin-6-yl)-4-pyridyl]morpholine], half-maximal inhibition (IC50) was put at 9 nM. On the same count and under the same terms, under `CCC1CN(c2cc(F)cc(N3CCc4nc(-c5ncccn5)ncc4C3C)n2)CCO1` (stereo not drawn) [Example 7, 2-ethyl-4-[4-fluoro-6-(5-methyl-2-pyrimidin-2-yl-7,8-dihydro-5H-pyrido[4,3-d]pyrimidin-6-yl)-2-pyridyl]morpholine] stands 42 nM; under `CC1c2cnc(-c3ncccn3)nc2CCN1c1cc(N2CCOC(C)(C)C2)cc(F)n1` (stereo not drawn) [Example 8, 4-[2-fluoro-6-(5-methyl-2-pyrimidin-2-yl-7,8-dihydro-5H-pyrido[4,3-d]pyrimidin-6-yl)-4-pyridyl]-2,2-dimethyl-morpholine], 11 nM; under `CC1c2cnc(-c3ncccn3)nc2CCN1c1cc(F)cc(N2CCOC(C)(C)C2)n1` (stereo not drawn) [Example 9, 4-[4-fluoro-6-(5-methyl-2-pyrimidin-2-yl-7,8-dihydro-5H-pyrido[4,3-d]pyrimidin-6-yl)-2-pyridyl]-2,2-dimethyl-morpholine], 29 nM. On the same count and under the same terms, in the case of `CC1c2cnc(-c3ncccn3)nc2CCN1c1cc(N2C3CCC2COC3)cc(F)n1` (stereo not drawn) [Example 10, 8-[2-fluoro-6-(5-methyl-2-pyrimidin-2-yl-7,8-dihydro-5H-pyrido[4,3-d]pyrimidin-6-yl)-4-pyridyl]-3-oxa-8-azabicyclo[3.2.1]octane] it was 39 nM. On the same count and under the same terms, in the case of `CC1c2cnc(-c3ncccn3)nc2CCN1c1cc(F)cc(N2C3CCC2COC3)n1` (stereo not drawn) [Example 11, 8-[4-fluoro-6-(5-methyl-2-pyrimidin-2-yl-7,8-dihydro-5H-pyrido[4,3-d]pyrimidin-6-yl)-2-pyridyl]-3-oxa-8-azabicyclo[3.2.1]octane] it was 188 nM. The compound `CC1c2cnc(-c3ncccn3)nc2CCN1c1cc(N2CCC3(CCOC3)C2)cc(F)n1` (stereo not drawn) [Example 12, 7-[2-fluoro-6-(5-methyl-2-pyrimidin-2-yl-7,8-dihydro-5H-pyrido[4,3-d]pyrimidin-6-yl)-4-pyridyl]-2-oxa-7-azaspiro[4.4]nonane] had an IC50 of 8 nM. On the same count and under the same terms, in the case of `COCC1CN(c2cc(F)nc(N3CCc4nc(-c5ncccn5)ncc4C3C)c2)CCO1` (stereo not drawn) [Example 14, 4-[2-fluoro-6-(5-methyl-2-pyrimidin-2-yl-7,8-dihydro-5H-pyrido[4,3-d]pyrimidin-6-yl)-4-pyridyl]-2-(methoxymethyl)morpholine] it was 17 nM. Same read-out and setting: under `COCC1CN(c2cc(F)cc(N3CCc4nc(-c5ncccn5)ncc4C3C)n2)CCO1` (stereo not drawn) [Example 15, 4-[4-fluoro-6-(5-methyl-2-pyrimidin-2-yl-7,8-dihydro-5H-pyrido[4,3-d]pyrimidin-6-yl)-2-pyridyl]-2-(methoxymethyl)morpholine] stands 30 nM; under `CC(=O)N1CCN(c2cc(F)nc(N3CCc4nc(-c5ncccn5)ncc4C3C)c2)CC1` (stereo not drawn) [Example 16, 1-[4-[2-fluoro-6-(5-methyl-2-pyrimidin-2-yl-7,8-dihydro-5H-pyrido[4,3-d]pyrimidin-6-yl)-4-pyridyl]piperazin-1-yl]ethanone], 14 nM; under `CC(=O)N1CCN(c2cc(F)cc(N3CCc4nc(-c5ncccn5)ncc4C3C)n2)CC1` (stereo not drawn) [Example 17, 1-[4-[4-fluoro-6-(5-methyl-2-pyrimidin-2-yl-7,8-dihydro-5H-pyrido[4,3-d]pyrimidin-6-yl)-2-pyridyl]piperazin-1-yl]ethanone], 15 nM. As for `CC1CCN(c2cc(F)nc(N3CCc4nc(-c5ncccn5)ncc4C3C)c2)C1` (stereo not drawn) [Example 18, 6-[6-fluoro-4-(3-methylpyrrolidin-1-yl)-2-pyridyl]-5-methyl-2-pyrimidin-2-yl-7,8-dihydro-5H-pyrido[4,3-d]pyrimidine], half-maximal inhibition (IC50) required 3 nM. The same measure, in the same setting: in the case of `CC1CCN(c2cc(F)cc(N3CCc4nc(-c5ncccn5)ncc4C3C)n2)C1` (stereo not drawn) [Example 19, 6-[4-fluoro-6-(3-methylpyrrolidin-1-yl)-2-pyridyl]-5-methyl-2-pyrimidin-2-yl-7,8-dihydro-5H-pyrido[4,3-d]pyrimidine] it was 11 nM; in that of `COC1CCN(c2cc(F)cc(N3CCc4nc(-c5ncccn5)ncc4C3C)n2)C1` (stereo not drawn) [Example 21, 6-[4-fluoro-6-(3-methoxypyrrolidin-1-yl)-2-pyridyl]-5-methyl-2-pyrimidin-2-yl-7,8-dihydro-5H-pyrido[4,3-d]pyrimidine], 13 nM; in that of `CC1c2cnc(-c3ncccn3)nc2CCN1c1cc(N2CCC(F)(F)C2)cc(F)n1` (stereo not drawn) [Example 22, 6-[4-(3,3-difluoropyrrolidin-1-yl)-6-fluoro-2-pyridyl]-5-methyl-2-pyrimidin-2-yl-7,8-dihydro-5H-pyrido[4,3-d]pyrimidine], 4 nM. The same measure, in the same setting: under `CC1c2cnc(-c3ncccn3)nc2CCN1c1cc(F)cc(N2CCC(F)(F)C2)n1` (stereo not drawn) [Example 23, 6-[6-(3,3-difluoropyrrolidin-1-yl)-4-fluoro-2-pyridyl]-5-methyl-2-pyrimidin-2-yl-7,8-dihydro-5H-pyrido[4,3-d]pyrimidine] stands 5 nM; under `CC1c2cnc(-c3ncccn3)nc2CCN1c1cc(N2CCOC(CO)C2)cc(F)n1` (stereo not drawn) [Example 24, [4-[2-fluoro-6-(5-methyl-2-pyrimidin-2-yl-7,8-dihydro-5H-pyrido[4,3-d]pyrimidin-6-yl)-4-pyridyl]morpholin-2-yl]methanol], 38 nM. Same read-out and setting: under `CC1c2cnc(-c3ncccn3)nc2CCN1c1cc(F)cc(N2CCOC(CO)C2)n1` (stereo not drawn) [Example 25, [4-[4-fluoro-6-(5-methyl-2-pyrimidin-2-yl-7,8-dihydro-5H-pyrido[4,3-d]pyrimidin-6-yl)-2-pyridyl]morpholin-2-yl]methanol] stands 46 nM. Compound `CC1c2cnc(-c3ncccn3)nc2CCN1c1cc(N2CCOC(C(=O)O)C2)cc(F)n1` (stereo not drawn) [Example 26, 4-[2-fluoro-6-(5-methyl-2-pyrimidin-2-yl-7,8-dihydro-5H-pyrido[4,3-d]pyrimidin-6-yl)-4-pyridyl]morpholine-2-carboxylic acid] displayed an IC50 of 2320 nM. For the compound `CC1c2cnc(-c3ncccn3)nc2CCN1c1cc(F)cc(N2CCOC(C(=O)O)C2)n1` (stereo not drawn) [Example 27, 4-[4-fluoro-6-(5-methyl-2-pyrimidin-2-yl-7,8-dihydro-5H-pyrido[4,3-d]pyrimidin-6-yl)-2-pyridyl]morpholine-2-carboxylic acid], it took 3760 nM to reach half-maximal inhibition (IC50). On the same count and under the same terms, under `CC1c2cnc(-c3ncccn3)nc2CCN1c1cc(N2CCOC(CC(=O)O)C2)cc(F)n1` (stereo not drawn) [Example 28, 2-[4-[2-fluoro-6-(5-methyl-2-pyrimidin-2-yl-7,8-dihydro-5H-pyrido[4,3-d]pyrimidin-6-yl)-4-pyridyl]morpholin-2-yl]acetic acid] stands 1820 nM.

For the origin of these results see patent US11104674B2 (Hoffmann-La Roche Inc., priority 2016, dated 2021).
